According to article PMC3661511, “Impact of Glucocorticoid Receptor Density on Ligand-Independent Dimerization, Cooperative Ligand-Binding and Basal Priming of Transactivation: A Cell Culture Model” (PLoS ONE, 2013):
Like-named read-outs stand apart in the source and are kept apart here.

How the values were obtained:
GRwt [1] = molecular target: T1, GRwt (Homo sapiens, UniProt P04150); assay: Promoter-reporter transactivation (pTAT-GRE2-E1b-luc) in COS-1 cells, GRwt; type: cell-based; settings: for EC50: read-out: Potency (log EC50) (converted)
T1 sequence (P04150 1-777): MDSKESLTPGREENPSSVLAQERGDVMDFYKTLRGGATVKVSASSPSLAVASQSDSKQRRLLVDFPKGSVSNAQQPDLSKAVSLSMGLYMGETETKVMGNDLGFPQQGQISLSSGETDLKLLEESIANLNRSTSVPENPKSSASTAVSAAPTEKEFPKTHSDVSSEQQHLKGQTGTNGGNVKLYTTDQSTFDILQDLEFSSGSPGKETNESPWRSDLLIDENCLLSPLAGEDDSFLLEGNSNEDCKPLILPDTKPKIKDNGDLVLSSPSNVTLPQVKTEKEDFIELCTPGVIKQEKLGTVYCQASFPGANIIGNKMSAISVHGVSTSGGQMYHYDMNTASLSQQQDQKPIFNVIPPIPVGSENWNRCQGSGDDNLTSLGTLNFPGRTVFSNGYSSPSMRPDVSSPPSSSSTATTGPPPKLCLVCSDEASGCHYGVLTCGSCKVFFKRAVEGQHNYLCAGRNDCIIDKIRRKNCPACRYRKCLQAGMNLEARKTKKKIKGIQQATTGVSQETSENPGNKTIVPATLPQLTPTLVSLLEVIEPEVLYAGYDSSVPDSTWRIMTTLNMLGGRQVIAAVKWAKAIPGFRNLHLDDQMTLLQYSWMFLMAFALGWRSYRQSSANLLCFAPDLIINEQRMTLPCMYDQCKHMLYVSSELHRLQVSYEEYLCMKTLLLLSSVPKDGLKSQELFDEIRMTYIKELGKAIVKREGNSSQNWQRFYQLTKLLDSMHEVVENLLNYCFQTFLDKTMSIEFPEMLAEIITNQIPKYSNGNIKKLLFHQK
Procedure: (§1) Cells were transfected with low, medium or high GRwt, low or medium GRdim and 3000 ng pTAT-GRE2-E1b-luc filled to 14550 ng total plasmid with empty vector. Cells were replated 24 h later into 96-well plates (4×10^4 cells/well) in charcoal-stripped DMEM. […] Cells were lysed with 30 µl of passive lysis buffer (Promega), and subjected to a freeze thaw cycle. Luciferase activity was determined using a luciferase assay kit (Promega). Light emission was measured in a Veritas microplate luminometer (Turner Biosystems). Luciferase relative light units were normalized against protein concentrations. Sigmoidal dose-response curves were fit to the experimental data which generated basal induction (bottom), maximal induction (top-bottom), fold-induction (top/bottom), and log EC50.

GRdim = molecular target: T2, GRdim (Homo sapiens, UniProt P04150, A458T); assay: Promoter-reporter transactivation (pTAT-GRE2-E1b-luc) in COS-1 cells, GRdim; type: cell-based
T2 sequence (P04150 1-777 A458T): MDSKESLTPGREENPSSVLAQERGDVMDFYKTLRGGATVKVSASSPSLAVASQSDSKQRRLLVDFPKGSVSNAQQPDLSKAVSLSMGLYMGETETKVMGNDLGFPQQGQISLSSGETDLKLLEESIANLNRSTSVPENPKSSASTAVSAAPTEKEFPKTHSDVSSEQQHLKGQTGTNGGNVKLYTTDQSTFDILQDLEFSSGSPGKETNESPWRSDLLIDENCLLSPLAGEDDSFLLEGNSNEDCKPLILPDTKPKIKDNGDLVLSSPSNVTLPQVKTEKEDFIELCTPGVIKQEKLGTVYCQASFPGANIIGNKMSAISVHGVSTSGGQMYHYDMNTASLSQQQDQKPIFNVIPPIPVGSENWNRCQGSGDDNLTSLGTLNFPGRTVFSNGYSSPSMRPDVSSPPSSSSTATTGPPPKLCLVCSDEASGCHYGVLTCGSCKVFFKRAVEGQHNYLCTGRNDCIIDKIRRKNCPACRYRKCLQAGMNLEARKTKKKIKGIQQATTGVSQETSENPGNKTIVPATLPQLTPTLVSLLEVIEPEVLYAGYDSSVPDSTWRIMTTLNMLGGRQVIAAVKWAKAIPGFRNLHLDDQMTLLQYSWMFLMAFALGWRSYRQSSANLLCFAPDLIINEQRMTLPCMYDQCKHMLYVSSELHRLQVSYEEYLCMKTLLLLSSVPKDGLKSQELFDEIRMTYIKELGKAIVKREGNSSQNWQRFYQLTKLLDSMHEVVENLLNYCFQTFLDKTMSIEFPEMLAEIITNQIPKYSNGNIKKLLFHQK
Procedure: as §1

GRwt [2] = settings: COS-1 cells transiently transfected with high levels of GRwt; cited from earlier work
[3] = molecular target: T3, Flag-tagged human glucocorticoid receptor alpha, wild type (pEFFlaghGRα) (human, UniProt P04150 1-777); assay: co-IP; medium or high GR levels co-transfected in COS-1 cells; cells treated 1 h with vehicle (ethanol) or 10^-6 M DEX; 200 µg lysate protein on anti-FLAG M2 affinity gel beads, 16 h at 4°C, Buffer A with 2.5% casein; immunoblot with anti-GR; GFP-GR pull-down normalized to Flag-GR; settings: partners not purified
T3 construct: glucocorticoid receptor alpha (hGRα), human, wild type; construct pEFFlaghGRα, molecular mass 96 kDa as printed; also called Flag-GR; Flag-GRwt; source: COS-1, transiently transfected (DEAE-dextran), in lysate
T3 sequence (looked up): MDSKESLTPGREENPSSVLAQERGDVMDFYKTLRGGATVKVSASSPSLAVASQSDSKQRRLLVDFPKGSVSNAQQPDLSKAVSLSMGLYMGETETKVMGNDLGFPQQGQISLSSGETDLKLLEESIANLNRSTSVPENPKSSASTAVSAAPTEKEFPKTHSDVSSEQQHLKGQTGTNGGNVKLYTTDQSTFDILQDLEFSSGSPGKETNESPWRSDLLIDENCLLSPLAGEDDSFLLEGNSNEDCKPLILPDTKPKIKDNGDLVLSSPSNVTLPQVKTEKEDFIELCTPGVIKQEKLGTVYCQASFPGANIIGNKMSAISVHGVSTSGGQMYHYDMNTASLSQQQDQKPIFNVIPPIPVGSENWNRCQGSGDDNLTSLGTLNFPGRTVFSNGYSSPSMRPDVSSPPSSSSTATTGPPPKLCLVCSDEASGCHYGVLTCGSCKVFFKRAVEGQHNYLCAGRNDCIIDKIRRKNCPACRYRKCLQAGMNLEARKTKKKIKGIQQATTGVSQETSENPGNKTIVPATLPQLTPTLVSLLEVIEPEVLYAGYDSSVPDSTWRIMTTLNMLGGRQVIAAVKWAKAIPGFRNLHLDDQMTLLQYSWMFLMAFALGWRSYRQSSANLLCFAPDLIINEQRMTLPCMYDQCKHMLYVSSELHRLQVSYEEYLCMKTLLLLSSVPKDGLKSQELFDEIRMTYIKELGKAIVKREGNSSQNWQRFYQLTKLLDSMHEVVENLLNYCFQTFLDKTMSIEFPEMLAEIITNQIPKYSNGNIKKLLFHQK

[4] = molecular target: T3, Flag-tagged human glucocorticoid …; assay: co-IP; low GR levels co-transfected in COS-1 cells; cells treated 1 h with vehicle (ethanol), 10^-6 M DEX or 10^-5 M CpdA; 600 µg lysate protein on anti-FLAG M2 affinity gel beads, 16 h at 4°C, Buffer A with 2.5% casein; immunoblot with anti-GR; GFP-GR pull-down normalized to Flag-GR; settings: partners not purified

CC#C[C@]1(O)CC[C@H]2[C@@H]3CCC4=CC(=O)CCC4=C3[C@@H](c3ccc(N(C)C)cc3)C[C@@]21C [RU486, mifepristone]
Maximal induction (RLU/mg protein) (GRwt [1]; GRwt concentration Low): 1.8 x 10^4 ± 3.7 x 10^3 RLU/mg protein
Maximal induction (RLU/mg protein) (GRwt [1]; GRwt concentration Medium): 6.4 x 10^4 ± 7.5 x 10^3 RLU/mg protein
Maximal induction (RLU/mg protein) (GRdim; GRdim concentration Low): 7.1 x 10^4 ± 8.7 x 10^3 RLU/mg protein
Maximal induction (RLU/mg protein) (GRdim; GRdim concentration Medium): 4.0 x 10^5 ± 7.8 x 10^4 RLU/mg protein

C[C@]12CCC(=O)C=C1CC[C@@H]1[C@@H]2[C@@H](O)C[C@@]2(C)[C@H]1CC[C@]2(O)C(=O)CO [F, cortisol]
Maximal induction (RLU/mg protein) (GRwt [1]; GRwt concentration Low): 2.8 x 10^4 ± 7.2 x 10^3 RLU/mg protein
Maximal induction (RLU/mg protein) (GRwt [1]; GRwt concentration Medium): 8.8 x 10^4 ± 6 x 10^3 RLU/mg protein
Maximal induction (RLU/mg protein) (GRdim; GRdim concentration Low): 3.7 x 10^4± 8.3 x 10^3 RLU/mg protein
Maximal induction (RLU/mg protein) (GRdim; GRdim concentration Medium): 2.2 x 10^5 ± 5.7 x 10^4 RLU/mg protein

CC(=O)O[C@]1(C(C)=O)CC[C@H]2[C@@H]3C[C@H](C)C4=CC(=O)CC[C@]4(C)[C@H]3CC[C@@]21C [MPA, medroxyprogesterone acetate]
Maximal induction (RLU/mg protein) (GRwt [1]; GRwt concentration Low): 3.5 x 10^4 ± 8.3 x 10^3 RLU/mg protein
EC50 (GRwt [1]; GRwt concentration Low, pTAT-GRE2-Elb-luc, 24h): 23.4 nM
Maximal induction (RLU/mg protein) (GRwt [1]; GRwt concentration Medium): 1.5 x 10^5 ± 2.3 x 10^4 RLU/mg protein
EC50 (GRwt [1]; GRwt concentration Medium): 8.71 nM

C[C@@H]1C[C@H]2[C@@H]3CCC4=CC(=O)C=C[C@]4(C)[C@@]3(F)[C@@H](O)C[C@]2(C)[C@@]1(O)C(=O)CO [DEX, Dexamethasone]
Kd (GRwt [2]): 12.6 nM

B1: GFP-tagged dimerization-deficient glucocorticoid receptor (pEGFP-C2-GRA477T, carrying the GRdim sequence from pHisGRA458T) (receptor, human, UniProt P04150 1-777, looked up)
chain: MDSKESLTPGREENPSSVLAQERGDVMDFYKTLRGGATVKVSASSPSLAVASQSDSKQRRLLVDFPKGSVSNAQQPDLSKAVSLSMGLYMGETETKVMGNDLGFPQQGQISLSSGETDLKLLEESIANLNRSTSVPENPKSSASTAVSAAPTEKEFPKTHSDVSSEQQHLKGQTGTNGGNVKLYTTDQSTFDILQDLEFSSGSPGKETNESPWRSDLLIDENCLLSPLAGEDDSFLLEGNSNEDCKPLILPDTKPKIKDNGDLVLSSPSNVTLPQVKTEKEDFIELCTPGVIKQEKLGTVYCQASFPGANIIGNKMSAISVHGVSTSGGQMYHYDMNTASLSQQQDQKPIFNVIPPIPVGSENWNRCQGSGDDNLTSLGTLNFPGRTVFSNGYSSPSMRPDVSSPPSSSSTATTGPPPKLCLVCSDEASGCHYGVLTCGSCKVFFKRAVEGQHNYLCTGRNDCIIDKIRRKNCPACRYRKCLQAGMNLEARKTKKKIKGIQQATTGVSQETSENPGNKTIVPATLPQLTPTLVSLLEVIEPEVLYAGYDSSVPDSTWRIMTTLNMLGGRQVIAAVKWAKAIPGFRNLHLDDQMTLLQYSWMFLMAFALGWRSYRQSSANLLCFAPDLIINEQRMTLPCMYDQCKHMLYVSSELHRLQVSYEEYLCMKTLLLLSSVPKDGLKSQELFDEIRMTYIKELGKAIVKREGNSSQNWQRFYQLTKLLDSMHEVVENLLNYCFQTFLDKTMSIEFPEMLAEIITNQIPKYSNGNIKKLLFHQK
notes: the plasmid's name says A477T, the text A458T; also called GFP-GRdim; source: COS-1, transiently transfected (DEAE-dextran), in lysate
GFP-GR pull-down after ethanol, relative to DEX-induced GRwt set at 100 percent (high GR level) [3]: 36 to 66%
GFP-GR pull-down after ethanol, relative to DEX-induced GRwt set at 100 percent (low GR level) [4]: 36 to 66%
